Structures are written as SMILES. pIC50: −log10 of the molar value.

One test concerns the target T1, IKKε (Homo sapiens, UniProt Q14164).
T1 construct: purchased Promega and/or Invitrogen V4158; PR8031B; V3991 (not assigned to the two kinases)
T1 sequence (Q14164 1-716): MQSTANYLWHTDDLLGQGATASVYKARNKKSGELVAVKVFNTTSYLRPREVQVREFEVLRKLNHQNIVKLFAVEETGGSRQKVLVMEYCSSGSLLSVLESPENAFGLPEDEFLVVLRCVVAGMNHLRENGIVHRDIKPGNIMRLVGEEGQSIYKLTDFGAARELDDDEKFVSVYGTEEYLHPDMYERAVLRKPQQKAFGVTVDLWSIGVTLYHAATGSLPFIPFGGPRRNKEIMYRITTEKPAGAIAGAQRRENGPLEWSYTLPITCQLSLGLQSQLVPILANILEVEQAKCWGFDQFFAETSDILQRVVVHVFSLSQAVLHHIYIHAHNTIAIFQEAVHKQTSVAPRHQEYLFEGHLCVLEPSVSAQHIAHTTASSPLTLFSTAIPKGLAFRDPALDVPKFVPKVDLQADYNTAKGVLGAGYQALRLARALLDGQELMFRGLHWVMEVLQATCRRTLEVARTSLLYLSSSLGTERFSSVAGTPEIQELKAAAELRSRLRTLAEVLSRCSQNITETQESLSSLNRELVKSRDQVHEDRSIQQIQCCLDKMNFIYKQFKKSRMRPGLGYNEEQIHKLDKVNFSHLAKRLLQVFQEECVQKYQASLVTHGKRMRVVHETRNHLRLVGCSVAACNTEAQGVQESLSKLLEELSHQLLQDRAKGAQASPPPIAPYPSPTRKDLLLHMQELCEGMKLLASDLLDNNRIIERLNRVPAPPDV
Put plainly: ADP-Glo Kinase Assay, inhibition activity on IKKε. It counts as biochemical. The gist of the method:
(§1)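 Kinase activity measured with the ADP-Glo luminescent ADP-detection kit per manufacturer's protocol, using IKKε or TBK1 kinase enzyme systems. Reaction buffer: 40 mM Tris (pH 7.5), 20 mM MgCl2, 0.1 mg/mL BSA; luminescence read on a luminometer.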
For orientation: ADP-Glo turns the ADP formed in a reaction into a luminescent signal.

In a further test the target is T2, TBK1 (Homo sapiens, UniProt Q9UHD2).
T2 construct: purchased Promega (Invitrogen is also named in the same bracket) V4158; PR8031B; V3991 (not assigned to the two kinases)
T2 sequence (Q9UHD2 1-729): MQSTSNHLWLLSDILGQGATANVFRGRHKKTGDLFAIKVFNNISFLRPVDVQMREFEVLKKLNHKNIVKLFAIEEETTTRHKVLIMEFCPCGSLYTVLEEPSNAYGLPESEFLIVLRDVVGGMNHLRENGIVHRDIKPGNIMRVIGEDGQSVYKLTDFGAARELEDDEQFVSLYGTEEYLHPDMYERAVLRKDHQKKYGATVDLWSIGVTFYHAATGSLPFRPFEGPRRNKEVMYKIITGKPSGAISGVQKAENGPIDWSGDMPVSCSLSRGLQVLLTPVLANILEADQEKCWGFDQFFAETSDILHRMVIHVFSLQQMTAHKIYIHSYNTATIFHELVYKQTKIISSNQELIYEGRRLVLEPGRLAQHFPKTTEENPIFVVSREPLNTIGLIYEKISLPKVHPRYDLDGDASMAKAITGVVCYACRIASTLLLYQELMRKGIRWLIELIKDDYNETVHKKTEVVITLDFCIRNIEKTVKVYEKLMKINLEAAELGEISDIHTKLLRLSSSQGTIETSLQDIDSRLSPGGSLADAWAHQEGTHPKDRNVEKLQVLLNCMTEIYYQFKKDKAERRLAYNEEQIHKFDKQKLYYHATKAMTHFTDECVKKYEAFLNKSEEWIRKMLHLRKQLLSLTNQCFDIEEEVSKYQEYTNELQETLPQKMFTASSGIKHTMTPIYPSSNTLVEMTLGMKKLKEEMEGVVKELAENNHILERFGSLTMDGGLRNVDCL
Put plainly: ADP-Glo Kinase Assay, inhibition activity on TBK1. It counts as biochemical. An outline of the steps: as §1

On to `COc1ccc(-c2cnc3[nH]cc(C4=CCN(C(=O)NC5CCCC5)CC4)c3c2)cc1S(=O)(=O)N1CCOCC1` [Example 63, N-cyclopentyl-4-(5-(4-methoxy-3-(morpholinosulfonyl)phenyl)-1H-pyrrolo[2,3-b]pyridin-3-yl)-5,6-dihydropyridine-1(2H)-carboxamide], for which the pIC50 was 6.36 against IKKε and 7.54 on TBK1.

Take `O=C(NC1CCCC1)N1CC=C(c2c[nH]c3ncc(-c4ccc(CN5CCOCC5)s4)cc23)CC1` [Example 72, N-cyclopentyl-4-(5-(5-(morpholinomethyl)thiophen-2-yl)-1H-pyrrolo[2,3-b]pyridin-3-yl)-5,6-dihydropyridine-1(2H)-carboxamide]: the pIC50 was 7.42 against IKKε and 7.55 at TBK1.

In the case of `CN1CCN(Cc2ccc(-c3cnc4[nH]cc(C5=CCN(C(=O)NC6COC6)CC5)c4c3)cc2)CC1` [Example 78, 4-(5-(4-((4-Methylpiperazin-1-yl)methyl)phenyl)-1H-pyrrolo[2,3-b]pyridin-3-yl)-N-(oxetan-3-yl)-5,6-dihydropyridine-1(2H)-carboxamide], the values for the pIC50 against IKKε and on TBK1 were 7.26 and 7.82, respectively.

As for `CN1CCN(Cc2ccc(-c3cnc4[nH]cc(C5=CCN(C(=O)NC6COC6)CC5)c4c3)s2)CC1` [Example 79, 4-(5-(5-((4-Methylpiperazin-1-yl)methyl)thiophen-2-yl)-1H-pyrrolo[2,3-b]pyridin-3-yl)-N-(oxetan-3-yl)-5,6-dihydropyridine-1(2H)-carboxamide], the pIC50 on IKKε is 7.55; at TBK1, 6.49.

Take `O=C(NC1COC1)N1CC=C(c2c[nH]c3ncc(-c4ccc(CN5CCOCC5)s4)cc23)CC1` [Example 80, 4-(5-(5-(Morpholinomethyl)thiophen-2-yl)-1H-pyrrolo[2,3-b]pyridin-3-yl)-N-(oxetan-3-yl)-5,6-dihydropyridine-1(2H)-carboxamide]: the pIC50 is 8.47 at IKKε and 8.92 against TBK1.

Turning to `CC(C)NC(=O)N1CCC(c2c[nH]c3ncc(-c4ccc(CN5CCN(C)CC5)cc4)cc23)=CC1C` (stereo not drawn) [Example 86, N-isopropyl-2-methyl-4-(5-(4-((4-methylpiperazin-1-yl)methyl)phenyl)-1H-pyrrolo[2,3-b]pyridin-3-yl)-5,6-dihydropyridine-1(2H)-carboxamide], the pIC50 on IKKε is 8.46; against TBK1 it was 8.55.

`CC(C)NC(=O)N1CCC(c2c[nH]c3ncc(-c4ccc(CN5CCOCC5)s4)cc23)=CC1C` (stereo not drawn) [Example 87, N-isopropyl-2-methyl-4-(5-(5-(morpholinomethyl)thiophen-2-yl)-1H-pyrrolo[2,3-b]pyridin-3-yl)-5,6-dihydropyridine-1(2H)-carboxamide]: the negative-log IC50 (pIC50) against IKKε is 8.82; on TBK1, 9.00.

Consider `CC(C)NC(=O)N1CCC(c2c[nH]c3ncc(-c4ccc(CN5CCN(C)CC5)s4)cc23)=CC1C` (stereo not drawn) [Example 88, N-isopropyl-2-methyl-4-(5-(5-((4-methylpiperazin-1-yl)methyl)thiophen-2-yl)-1H-pyrrolo[2,3-b]pyridin-3-yl)-5,6-dihydropyridine-1(2H)-carboxamide], for which the pIC50 at IKKε was 8.49; on TBK1, 9.10.

In the case of `CC(C)NC(=O)N1CCC(c2c[nH]c3ncc(-c4ccc(C(=O)N5CCN(C)CC5)cc4)cc23)=CC1C` (stereo not drawn) [Example 89, N-isopropyl-2-methyl-4-(5-(4-(4-methylpiperazine-1-carbonyl)phenyl)-1H-pyrrolo[2,3-b]pyridin-3-yl)-5,6-dihydropyridine-1(2H)-carboxamide], the pIC50 on IKKε is 8.48; against TBK1, 8.55.

`CC(C)NC(=O)N1CCC(c2c[nH]c3ncc(-c4ccc(CN5CCOCC5)cc4)cc23)=CC1C` (stereo not drawn) [Example 90, N-isopropyl-2-methyl-4-(5-(4-(morpholinomethyl)phenyl)-1H-pyrrolo[2,3-b]pyridin-3-yl)-5,6-dihydropyridine-1(2H)-carboxamide]: the results for the pIC50 at IKKε and against TBK1 were 8.26 and 8.28, respectively.

Regarding `CCC(CC)NC(=O)N1CCC(c2c[nH]c3ncc(-c4ccc(CN5CCN(C)CC5)s4)cc23)=CC1C` (stereo not drawn) [Example 91, 6-Methyl-4-(5-(5-((4-methylpiperazin-1-yl)methyl)thiophen-2-yl)-1H-pyrrolo[2,3-b]pyridin-3-yl)-N-(pentan-3-yl)-3,6-dihydropyridine-1(2H)-carboxamide], the pIC50 against IKKε was 6.74; on TBK1, 7.34.

In the case of `CCC(CC)NC(=O)N1CCC(c2c[nH]c3ncc(-c4ccc(CN5CCOCC5)s4)cc23)=CC1C` (stereo not drawn) [Example 92, 6-Methyl-4-(5-(5-(morpholinomethyl)thiophen-2-yl)-1H-pyrrolo[2,3-b]pyridin-3-yl)-N-(pentan-3-yl)-3,6-dihydropyridine-1(2H)-carboxamide], the pIC50 was 6.89 at IKKε and 7.46 against TBK1.

Take `CC1C=C(c2c[nH]c3ncc(-c4ccc(CN5CCN(C(=O)OC(C)(C)C)CC5)s4)cc23)CCN1C(=O)NC1CC1` (stereo not drawn) [Example 93, tert-Butyl 4-((5-(3-(1-(cyclopropylcarbamoyl)-6-methyl-1,2,3,6-tetrahydropyridin-4-yl)-1H-pyrrolo[2,3-b]pyridin-5-yl)thiophen-2-yl)methyl)piperazine-1-carboxylate]: the pIC50 against IKKε was 7.32; against TBK1 it was 7.74.

Turning to `CC1C=C(c2c[nH]c3ncc(-c4ccc(C(=O)N5CCN(C)CC5)cc4)cc23)CCN1C(=O)NC1CC1` (stereo not drawn) [Example 94, N-cyclopropyl-2-methyl-4-(5-(4-(4-methylpiperazine-1-carbonyl)phenyl)-1H-pyrrolo[2,3-b]pyridin-3-yl)-5,6-dihydropyridine-1(2H)-carboxamide], the pIC50 on IKKε is 8.00; against TBK1 it was 8.41.

With `CC1C=C(c2c[nH]c3ncc(-c4ccc(CN5CCN(C)CC5)cc4)cc23)CCN1C(=O)NC1CC1` (stereo not drawn) [Example 95, N-cyclopropyl-2-methyl-4-(5-(4-((4-methylpiperazin-1-yl)methyl)phenyl)-1H-pyrrolo[2,3-b]pyridin-3-yl)-5,6-dihydropyridine-1(2H)-carboxamide], the pIC50 against IKKε was 7.85; at TBK1, 8.13.

Turning to `CC1C=C(c2c[nH]c3ncc(-c4ccc(CN5CCN(C)CC5)s4)cc23)CCN1C(=O)NC1CC1` (stereo not drawn) [Example 96, N-cyclopropyl-2-methyl-4-(5-(5-((4-methylpiperazin-1-yl)methyl)thiophen-2-yl)-1H-pyrrolo[2,3-b]pyridin-3-yl)-5,6-dihydropyridine-1(2H)-carboxamide], the pIC50 at IKKε is 8.19; against TBK1, 8.51.

On to `CC1C=C(c2c[nH]c3ncc(-c4ccc(CN5CCOCC5)s4)cc23)CCN1C(=O)NC1CC1` (stereo not drawn) [Example 97, N-cyclopropyl-2-methyl-4-(5-(5-(morpholinomethyl)thiophen-2-yl)-1H-pyrrolo[2,3-b]pyridin-3-yl)-5,6-dihydropyridine-1(2H)-carboxamide], for which the values for the pIC50 at IKKε and at TBK1 were 8.60 and 8.77, respectively.

Consider `CC1C=C(c2c[nH]c3ncc(-c4ccc(C(=O)N5CCN(C)CC5)cc4)cc23)CCN1C(=O)NC1CCC1` (stereo not drawn) [Example 98, N-cyclobutyl-2-methyl-4-(5-(4-(4-methylpiperazine-1-carbonyl)phenyl)-1H-pyrrolo[2,3-b]pyridin-3-yl)-5,6-dihydropyridine-1(2H)-carboxamide], for which the pIC50 against IKKε is 7.66; on TBK1 it was 7.82.

As usually defined, the pIC50 is the IC50 on a negative log10 scale, so that one unit is a factor of ten.

For the origin of these results see US10239873B2, “7-azaindole or 4,7-diazaindole derivatives as IKKϵ epsilon and TBK1 inhibitor and pharmaceutical composition comprising same” (GREEN CROSS CORPORATION, priority 2015, dated 2019).
